2 compounds from ChEMBL document CHEMBL6103611, “Structure and Dynamics of Macrophage Infectivity Potentiator Proteins from Pathogenic Bacteria and Protozoans Bound to Fluorinated Pipecolic Acid Inhibitors” (J Med Chem, 2025) can be followed below.

In assay [1] the target is T1, Peptidyl-prolyl cis-trans isomerase (Burkholderia pseudomallei (strain K96243)) (UniProt Q63J95).
T1 sequence (whole entry): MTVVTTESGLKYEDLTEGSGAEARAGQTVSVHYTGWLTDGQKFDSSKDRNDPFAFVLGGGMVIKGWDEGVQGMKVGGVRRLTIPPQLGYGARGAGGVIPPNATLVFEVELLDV

For assay [2], the target named is Outer membrane protein MIP (Legionella pneumophila) (UniProt Q70YI1).
Assay [3] addresses T2, Macrophage infectivity potentiator (Trypanosoma cruzi) (UniProt Q09734).
T2 sequence (whole entry): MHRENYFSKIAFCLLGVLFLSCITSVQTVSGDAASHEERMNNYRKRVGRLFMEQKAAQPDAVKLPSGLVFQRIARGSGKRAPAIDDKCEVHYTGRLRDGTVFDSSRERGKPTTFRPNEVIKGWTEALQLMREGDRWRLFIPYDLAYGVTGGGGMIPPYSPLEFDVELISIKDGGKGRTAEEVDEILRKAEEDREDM

The target in assay [4] is Outer membrane protein MIP (Legionella pneumophila) (UniProt Q70YI1). This is another data set of the same source.
The target is the same in assay [5]. The source holds these as a separate data set.
The target is the same in assay [6]. The source holds these as a separate data set.
Assay [7] addresses T1, Peptidyl-prolyl cis-trans isomerase (Burkholderia pseudomallei (strain K96243)). The source holds these as a separate data set.
For assay [8] the target is unchanged. The source holds these as a separate data set.
The target in assay [9] is Outer membrane protein MIP (Legionella pneumophila) (UniProt Q70YI1). This is another data set of the same source.
For assay [10] the target is unchanged. This is another data set of the same source.
For assay [11] the target is unchanged. The source holds these as a separate data set.
In assay [12] the target is T2, Macrophage infectivity potentiator (Trypanosoma cruzi). The source holds these as a separate data set.
The target in assay [13] is Outer membrane protein MIP (Legionella pneumophila) (UniProt Q70YI1). This is another data set of the same source.
Assay [14] addresses T2, Macrophage infectivity potentiator (Trypanosoma cruzi). This is another data set of the same source.

Calls of active or inactive are those of the source. No cut-off for these calls is given here.

Take `CC(C)C[C@H](NC(=O)[C@@H]1CCCCN1S(=O)(=O)Cc1ccc(F)cc1)C(=O)NCc1cccnc1`: the Time is 7.6 nanoseconds in assay [1], 13.8 nanoseconds in [3], 8.8 nanoseconds in assay [4] and 27.9 nanoseconds in assay [6]. The result in [2], in assay [5], in assay [7], in assay [8], in assay [9] and in [10] was Active. Moreover, the result in assay [11], in assay [12] and in [13] was Active.
For the compound `O=C(NCc1cccnc1)[C@H](Cc1ccc(F)cc1)NC(=O)[C@@H]1CCCCN1S(=O)(=O)Cc1ccc(F)cc1`, the Time in [1] was 7.8 nanoseconds; in assay [3], 14.5 nanoseconds; in assay [4], 9.7 nanoseconds; in assay [6], 25.4 nanoseconds. The outcome in assay [2], in assay [5], in assay [8], in [9], in assay [10] and in assay [11] was Active. Also, the outcome in [12], in [13] and in assay [14] was Active.
